Test results as given in patent publication US5872141A, “Method of inhibiting cholesterol transport” (priority 1997, dated 1999).
Like-named read-outs stand apart in the source and are kept apart here. One block for each compound: values may come before it.

Legend:
IEC-6 cells [1] = test: Specific steroid uptake from TDC-DMPC micelles by IEC-6 cells; type: cell-based, rat
Description: There was less than 15% variation between duplicates. Under these conditions of incubation the monolayer remained intact.
Referring to FIG. 1, monolayers on 12 well plates of IEC-6 cells were incubated for the indicated times at 37° C. with ^3 H-cholesterol (.circle-solid.), ^14 C-sitosterol (o), or ^3 H-cholesteryl oleate (.tangle-solidup.) in TDC-DMPC micelles as described above. The concentration (75 μM) and specific activity of the steroid was the same in all three conditions. After the desired incubation period, the media was removed, the monolayers were washed, the cells solubilized, and the amount of radioactivity incorporated into the cells was determined and plotted as counts per minute in the cells. […] At 60 minutes the cholesterol content of the cells was 2.7 times the sitosterol. Since sitosterol is closely related to cholesterol both chemically and physically, this indicated a biologically specific uptake. […] Thus, the IEC-6 cells were able to absorb specifically cholesterol from the mixed micelles.

[2] = Uptake of micellar steroid from isolated duodenum into mucosal homogenate; type: in vivo, rat
Description: Fifty Wistar male rats were anesthetized with phenobarbital and a celiotomy was performed. The duodenum was isolated with ligatures of umbilical tape at the pylorus and the ligament of Treitz. One ml of a suspension of micelles containing ^3 H-cholesterol and ^14 C-sitosterol together with taurodeoxycholate (TDC) and dimyristic phosphatidyl choline (DMPC) (Safonova et al. 1994) were injected into the isolated duodenum of each rat. Following ten minutes incubation in the duodenum the gut loop was excised. The duodenum was opened lengthwise with iris scissors and mucosal contents were vigorously washed in two changes of 0.15M NaCl, 20 mM Hepes solution (pH 7.5). The mucosa was scraped free with a glass microscope slide and homogenized in a Virtis homogenizer for 5 minutes and 12 strokes in a Potter-Elvehjeim homogenizer as previously described (Conrad et al. 1993). […] Membranes were collected by centrifugation at 20,000×g for 20 minutes. Membrane proteins were extracted overnight at 4° C. in 1% Triton X 100 20 mM Hepes pH 7.5. The suspension was centrifuged at 20,000×g for 20 minutes. The solubilized material (70 ml) contained 70% of the radiolabeled cholesterol. The solubilized material was applied to a 240 ml column of DE-92 (Whatmann) equilibrated in 20 mM Hepes, 1% Triton X 100 pH 7.5 and eluted with a saline gradient. […]

alkaline phosphatase = conditions: levamisole 58 mM, pH 8.5, 30 minutes at 37° C., IEC-6 homogenate, FIG. 2
Description: An incubation mixture of […] was prepared containing 0.1 ml of 500 mM Hepes pH 8.5, 25 mM MgCl2, 2.5 μM ZnCl2, and 0.5 ml of homogenate [1.0 mg/ml protein as determined by BCA method (Pierce, Rockford, Ill.)]. The indicated amount of p-nitrophenyl phosphate was added and the incubation allowed to proceed for 30 minutes at 37° C. To some of the tubes levamisole (58 mM) was added. After the incubation the absorption at 412 nm was determined.

IEC-6 cells [3] = conditions: increasing concentrations of levamisole, 30 minutes at 37° C., FIG. 3
Description: Radioisotopes were obtained from NEN (Billerca, Mass.) and other chemicals from Sigma (St. Louis, Mo.). ^3 H-cholesterol micelles were prepared from dimyristic phosphatidyl choline (DMPC) and taurodeoxycholate (TDC) as described by others (Safanova et al. 1994). The final solution contained 2.2×10^6 cpm/ml, 0.1 μM cholesterol, 60 mM DMPC and 6.5 mM TDC. Micelles with ^14 C-sitosterol or ^3 H-cholesteryl oleate were similarly prepared using the appropriate steroid and had the same specific activity. IEC-6 cells (Quaroni et al. 1979) obtained from the American Type Culture Collection (12301 Parklawn Drive, Rockville, Md.) were grown to confluence on 12-well Corning tissue culture plates. The media was removed and the monolayers were washed with phosphate buffered saline containing calcium, magnesium, and glucose (PBS). One ml of PBS was added to each well and 40 μl of the micellar solution (for a final steroid concentration of 4 nM). After incubation at 37° C., the plates were chilled and the wells washed four times in cold PBS. Water (0.5 ml) was added, and the plates were sonicated for 15 minutes (Branson model B-220, Shelton, Conn.) and then washed in an additional 0.5 ml of water. The water lysates were combined and counted in Ready-Safe (Beckman, Fullerton, Calif.) scintillation fluid. There was less than 15% variation between duplicates. […]

IEC-6 cells [4] = conditions: 32 mM levamisole, 60 minutes at 37° C., 20-60% sucrose gradient, FIG. 5
Description: Two petri dishes (7.5 cm) with monolayers of IEC-6 cells were grown to confluence and used for each experiment. Each plate was washed in PBS and then incubated with 3 ml of PBS containing 120 μl of cholesterol micelles. In two parallel petri dishes an identical incubation was performed but with the addition of 32 mM levamisole. After 60 minutes incubation the dishes were chilled, washed four times with cold PBS and then harvested by scraping the dishes into 8 ml of 10 mM Hepes, 10 mM NaCl pH 7.4. The cells were homogenized using a Tissue-Tearor (Biospec Products, Bartlettsville, Okla.) at full speed for 30 seconds×3. The homogenate was layered on top of a 26 ml linear sucrose gradient from 20-60% (w/w). Centrifugation was performed over 18-20 hours at 19,000 rpm with a S-20 rotor in a Sorvall RC28S (DuPont, Wilmington, Del.) centrifuge. The tubes were punched from the bottom and 1 ml fractions collected. Standard methods were used to identify the membrane fractions (Storrie & Madden 1990) utilizing p-nitrophenyl-sugars and spectrophotometric analysis.
Referring to FIG. 4, IEC-6 cells were incubated with ^3 H-cholesterol micelles for 60 minutes at 37° C., and then washed, homogenized, and separated on 20-60% sucrose gradients. The gradients were centrifuged to equilibrium. The location of various membrane fragments was determined by standard enzymatic methods (Storrie & Madden 1990). […]

- uptake by IEC-6 cells (IEC-6 cells [1]): poorly absorbed
SMILES: CCCCCCCC/C=C\CCCCCCCC(=O)O[C@H]1CC[C@@]2(C)C(=CC[C@H]3[C@@H]4CC[C@H]([C@H](C)CCCC(C)C)[C@@]4(C)CC[C@@H]32)C1 [Cholesterol ester, cholesteryl oleate]

- total uptake into the homogenate, % of added steroid ([2]; rat, in vivo, 10 min): 16%
- uptake by IEC-6 cells (IEC-6 cells [1]): linear for at least an hour
SMILES: CC(C)CCC[C@@H](C)[C@H]1CC[C@H]2[C@@H]3CC=C4C[C@@H](O)CC[C@]4(C)[C@H]3CC[C@]12C [cholesterol]

SMILES: c1ccc([C@H]2CN3CCSC3=N2)cc1 [levamisole, 2,3,5,6-tetrahydro-6-phenylimidazo-[2,1-b]thiazole]
- alkaline phosphatase activity inhibition (mode) (alkaline phosphatase): competitively inhibited
- effect of increasing drug concentration on cholesterol uptake (IEC-6 cells [3]): did not result in complete inhibition of uptake
- cholesterol uptake inhibited (IEC-6 cells [3]; maximal inhibition): Approximately 50%
- subcellular location of 3H-cholesterol label (IEC-6 cells [4]): majority of the label was found in the plasma membrane fraction (P)

SMILES: CC[C@H](CC[C@@H](C)[C@H]1CC[C@H]2[C@@H]3CC=C4C[C@@H](O)CC[C@]4(C)[C@H]3CC[C@]12C)C(C)C [sitosterol]
- total uptake into the homogenate, % of added steroid ([2]; rat isolated duodenum, micelles with TDC and DMPC, ten minutes incubation): 2%
- uptake by IEC-6 cells (IEC-6 cells [1]; 37° C., TDC-DMPC micelles, FIG. 1, cholesterol ester without added pancreatic cholesterol esterase): incorporated much less efficiently
